Data published in patent US20050148545A1, “Glucosamine organic acid adducts” (priority 2001, published 2005).

Test: Homogeneity of GOA: citric acid by HPLC in eight aliquots
Type: physicochemical
Description: Citric acid is determined quantitatively by dissolving a known quantity of glucosamine citrate in deionized water. The solution is filtered through a 0.22μ filter into a HPLC vial. The sample is analyzed by HPLC using a BioRad HPX-87H column (BioRad, City, State) and 0.01 N H2SO4 as the mobile phase.
A sample containing a blend comprising 20% by weight anhydrous citric acid and 80% glucosamine hydrochloride was blended by tumbling for five minutes. The blended sample was poured into a tray. Eight aliquots were collected from different areas of the tray. The aliquots were diluted in 0.01N H2SO4, and then analyzed for citric acid by the method described in Example 6. The peak areas were normalized by the aliquot weights, and then averaged. The relative standard deviation for the eight aliquots was 7.7%.
A sample of GOA from Example 2, which had been stored at room temperature in a flask for approximately eleven months, having 12.3% citric acid was analyzed similarly. Eight aliquots were taken from the sample. Citric acid was determined by HPLC as described above. The peak areas were normalized by the aliquot weights, and then averaged. The relative standard deviation for the eight aliquots was 1.9%.
The analytical precision measured from eight aliquots of pure citric acid was 1.8% relative.

## N[C@H]1C(O)O[C@H](CO)[C@@H](O)[C@@H]1O.O=C(O)CC(O)(CC(=O)O)C(=O)O [GOA from Example 2, glucosamine citrate]
Precision compared with pure citric acid
  degree of homogeneity: high degree of homogeneity

## O=C(O)CC(O)(CC(=O)O)C(=O)O [citric acid]
Pure citric acid, HPLC
  analytical precision measured from eight aliquots: 1.8 % relative
